Experiment [1] concerns the target T1, human CCR10 (Homo sapiens, UniProt P46092).
T1 construct: expressed in transfected cells; host or cells: KJMGER8 cells (Namalwa cell-derived line), beta-estradiol-induced; hCCR10G16 cells
T1 sequence (P46092 1-362): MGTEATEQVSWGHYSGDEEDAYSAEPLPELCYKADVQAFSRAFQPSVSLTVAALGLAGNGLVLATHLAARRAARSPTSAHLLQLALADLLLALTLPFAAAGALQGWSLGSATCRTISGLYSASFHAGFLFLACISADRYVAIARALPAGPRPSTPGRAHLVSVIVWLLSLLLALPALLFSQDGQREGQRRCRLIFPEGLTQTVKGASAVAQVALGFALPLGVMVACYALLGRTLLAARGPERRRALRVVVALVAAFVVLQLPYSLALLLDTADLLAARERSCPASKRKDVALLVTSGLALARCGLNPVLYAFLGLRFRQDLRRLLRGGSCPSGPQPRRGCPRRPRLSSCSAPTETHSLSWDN
Briefly: CCR10 antagonistic effect: calcium assay of human CCR10 (CTACK-induced increase of intracellular calcium in hCCR10G16 cells). Format: cell-based. The note with it: at a concentration of not more than 1000 nmol/L; human CCR10-expressing hCCR10G16 cells, 300 nmol/L CTACK added; read-out: inhibition of increase in the calcium ion concentration. In a few lines:
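Inhibition of CTACK-evoked calcium flux (max minus min Fluo-3 fluorescence over ~5 min, FDSS) was calculated against control in β-estradiol-induced human CCR10/Gα16 KJMGER8 cells, after 30 min compound preincubation at 37 °C; CTACK added from a 300 nmol/L solution.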

Experiment [2] concerns Dinitrofluorobenzene-induced Auricle Edema Reaction in Mouse. In words: Suppressive action on dinitrofluorobenzene-induced auricle edema reaction in mouse. Format: in vivo. The settings on record: BALB/c mice; for suppressive action on auricle edema response (in words): topical application in acetone, summary of Table 28; for inhibition in vivo at 1 %: test compound concentration 1% (w/v) in acetone. How it is done:
[Experimental Example 2] Suppressive Action on Dinitrofluorobenzene-induced Auricle Edema Reaction in Mouse
BALB/c mice (female, supplied by CHARLES RIVER LABORATORIES JAPAN, INC.) were purchased at the age of 5 weeks. After quarantine and acclimation, mice showing smooth body weight increase and free of abnormality in appearance were used and the test was started at the age of 7 weeks. The mice were housed in a breeding room at room temperature 19-25° C., humidity 30-70%, 12 hr lighting per day (7 a.m.-7 p.m.) with 3 mice in each plastic gauge, and bred on with free ingestion of a commercially available solid feed and water.
Two days before the test, the abdomen of the BALB/c mice was shaved, and the mice were immunized by applying 100 μL of a solution {concentration 0.5% [weight (w)/volume (v) %]} of dinitrofluorobenzene (manufactured by Nacalai Tesque) in acetone (manufactured by Wako Pure Chemical Industries, Ltd.) to the shaved part. The reaction was induced by applying dinitrofluorobenzene-acetone solution [concentration 0.2% (w/v %)] to the front and the back of auricle (10 μL to each, total 20 μL) on day 5 after the immunization. A test compound dissolved in acetone at concentration of 0.1% or 1% (w/v %) was administered by applying same to the front and the back of auricle (10 μL to each, total 20 μL) 1 hr before and 3 hr after induction of the reaction. After application, the applied part was air-dried with a dryer.
The group applying administered with the test compound was taken as a test compound administration group, and the group applying administered with acetone as a solvent instead of the test compound was taken as a solvent administration group. Also, the group free of immunization and reaction induction but applying administered with acetone instead of the test compound was taken as a normal group. The thickness of auricle was measured using a dial thickness gauge (G-1A manufactured by OZAKI MFG. CO., LTD.) immediately before and 24 hr after induction of the reaction, and the difference thereof was taken as auricle edema. The suppression rate (%) of auricle edema was calculated according to the following formula.

[3] abbreviates: Mus musculus, topical, applied to auricle 1 hr before and 3 hr after induction, measured 24 hr after induction, read-out: auricle edema suppression rate (%).

SMILES strings stand for the structures.

As to `Cc1cc(F)ccc1Nc1cc(S(=O)(=O)Nc2ccon2)ncc1C(=O)N1CCC(c2ccc(F)cc2)CC1` [Compound 11, 4-(4-fluoro-2-methylphenylamino)-5-[4-(4-fluorophenyl)piperidine-1-carbonyl]-N-(isoxazol-3-yl)pyridine-2-sulfonamide], the inhibition at up to 1 µM in experiment [1] was at least 50%. The “suppressive action on auricle edema response (in words)” value (“suppressive action” for short) in experiment [2] is “showed a suppressive action on auricle edema response”. For the same molecule, the inhibition in vivo at 1 % in experiment [2] (setting [3]) was 32%.
Taken in the same sequence, the figures for `NS(=O)(=O)c1ncc(C(=O)N2CCC(c3ccc(F)cc3)CC2)c(Nc2cccc(Cl)c2)c1Cl` [Compound 176, 3-chloro-4-(3-chlorophenylamino)-5-[4-(4-fluorophenyl)piperidine-1-carbonyl]pyridine-2-sulfonamide] were at least 50%, “showed a suppressive action on auricle edema response” and 42%.
Consider `Cc1cc(F)ccc1Nc1c(C(=O)N2CCC(c3ccc(F)cc3)CC2)cnc(S(N)(=O)=O)c1Cl` [Compound 25, 3-chloro-4-(4-fluoro-2-methylphenylamino)-5-[4-(4-fluorophenyl)piperidine-1-carbonyl]pyridine-2-sulfonamide], for which, in experiment [1], the inhibition at up to 1 µM was at least 50%. Besides, in experiment [2], the “suppressive action” value is “showed a suppressive action on auricle edema response”. In addition, in experiment [2] (setting [3]), the inhibition in vivo at 1 % is 47%.
Take `Cc1ccc(Cl)cc1Nc1c(C(=O)N2CCC(c3ccc(F)cc3)CC2)cnc(S(=O)(=O)Nc2ccon2)c1C` [Compound 232, 4-(5-chloro-2-methylphenylamino)-5-[4-(4-fluorophenyl)piperidine-1-carbonyl]-N-(isoxazol-3-yl)-3-methylpyridine-2-sulfonamide]: the inhibition at up to 1 µM in experiment [1] was at least 50%. The “suppressive action” value in experiment [2] is reported as “showed a suppressive action on auricle edema response”. The inhibition in vivo at 1 % in experiment [2] (setting [3]) worked out at 39%.
On to `Cc1cc(Cl)ccc1Nc1cc(S(=O)(=O)NC(=O)NC2CC2)ncc1C(=O)N1CCC(c2ccc(F)cc2)CC1` [Compound 21, 4-(4-chloro-2-methylphenylamino)-N-(cyclopropylcarbamoyl)-5-[4-(4-fluorophenyl)piperidine-1-carbonyl]pyridine-2-sulfonamide], for which the inhibition at up to 1 µM in experiment [1] was at least 50%. Besides, the “suppressive action” value in experiment [2] is recorded as “showed a suppressive action on auricle edema response”. Further, the inhibition in vivo at 0.1 % in experiment [2] (Mus musculus, topical, test compound concentration 0.1% (w/v) in acetone, applied to auricle 1 hr before and 3 hr after induction, measured 24 hr after induction, read-out: auricle edema suppression rate (%)) was 26%.
As for `Cc1c(S(=O)(=O)Nc2ccon2)ncc(C(=O)N2CCC(c3ccc(F)cc3)CC2)c1Nc1cccc(F)c1` [Compound 233, 5-[4-(4-fluorophenyl)piperidine-1-carbonyl]-4-(3-fluorophenylamino)-N-(isoxazol-3-yl)-3-methylpyridine-2-sulfonamide], in experiment [1], the inhibition at up to 1 µM is at least 50%. The “suppressive action” value in experiment [2] is listed as “showed a suppressive action on auricle edema response”. For the same molecule, the inhibition in vivo at 1 % in experiment [2] (setting [3]) stood at 24%.
On to `CCNC(=O)NS(=O)(=O)c1cc(Nc2ccc(F)cc2C)c(C(=O)N2CCC(c3ccc(F)cc3)CC2)cn1` [Compound 22, N-(ethylcarbamoyl)-4-(4-fluoro-2-methylphenylamino)-5-[4-(4-fluorophenyl)piperidine-1-carbonyl]pyridine-2-sulfonamide], for which the inhibition at up to 1 µM in experiment [1] was at least 50%. Also, the “suppressive action” value in experiment [2] is reported as “showed a suppressive action on auricle edema response”. Also, the inhibition in vivo at 1 % in experiment [2] (setting [3]) came to 47%.
On to `Cc1c(S(=O)(=O)Nc2ccon2)ncc(C(=O)N2CCC(c3ccc(F)cc3)CC2)c1Nc1ccc(Cl)cc1` [Compound 259, 4-(4-chlorophenylamino)-5-[4-(4-fluorophenyl)piperidine-1-carbonyl]-N-(isoxazol-3-yl)-3-methylpyridine-2-sulfonamide], for which the inhibition at up to 1 µM in experiment [1] was at least 50%. The “suppressive action” value in experiment [2] is reported as “showed a suppressive action on auricle edema response”. Also, in experiment [2] (setting [3]), the inhibition in vivo at 1 % worked out at 38%.
Taken in the same sequence, the figures for `NS(=O)(=O)c1ncc(C(=O)N2CCC(c3ccc(F)cc3)CC2)c(Nc2ccc(C(F)(F)F)cc2)c1Cl` [Compound 291, 3-chloro-5-[4-(4-fluorophenyl)piperidine-1-carbonyl]-4-[4-(trifluoromethyl)phenylamino]pyridine-2-sulfonamide] were at least 50%, “showed a suppressive action on auricle edema response” and 35%.
For `Cc1cc(NS(=O)(=O)c2ncc(C(=O)N3CCC(c4ccc(F)cc4)CC3)c(Nc3ccccc3C)c2C)sn1` [Compound 241, 5-[4-(4-fluorophenyl)piperidine-1-carbonyl]-3-methyl-N-(3-methylisothiazol-5-yl)-4-(o-tolylamino)pyridine-2-sulfonamide], in experiment [1], the inhibition at up to 1 µM is at least 50%. Besides, in experiment [2], the “suppressive action” value is given as “showed a suppressive action on auricle edema response”. For the same molecule, the inhibition in vivo at 1 % in experiment [2] (setting [3]) amounted to 27%.

Source of the values: patent US9701689B2, “Substituted pyridines and pyridazines as CCR10 receptor inhibitors” (KYOWA HAKKO KIRIN CO., LTD., priority 2012, dated 2017).
